Experimental findings from US8188102B2, “Amide derivative for inhibiting the growth of cancer cells” (Hanmi Holdings Co., Ltd., priority 2007, dated 2012) are described below.

Bounds are passed on as bounds.

The test system of experiment [1] is A431 skin cancer cell line. Briefly: Cancer cell growth inhibition, A431 (SRB). The conditions noted are these: Homo sapiens, A-431, 72 h, read-out: ID50 (nM) A431.
Experiment [2] relates to SK-Br3 breast cancer cell line. Put plainly: Cancer cell growth inhibition, SK-Br3 (SRB). The conditions noted are these: Homo sapiens, SK-BR-3, 72 h, read-out: ID50 (nM) SK-Br3.

Consider `C=CC(=O)N1CCC(Oc2cc3c(Nc4ccc(O)cc4Cl)ncnc3cc2OC)CC1` [Example 52, 1-(4-(4-(2-chloro-4-hydroxyphenylamino)-7-methoxyquinazolin-6-yloxy)piperidin-1-yl)pro-2-pen-1-one], for which the IC50 in experiment [1] came to 176 nM; in experiment [2] it was 30 nM.
On the same counts, the results for `C=CC(=O)N1CCC(Oc2cc3c(Nc4ccc(Cl)cc4O)ncnc3cc2OC)CC1` [Example 53, 1-(4-(4-(4-chloro-2-hydroxyphenylamino)-7-methoxyquinazolin-6-yloxy)piperidin-1-yl)pro-2-pen-1-one] are 32 nM and 21 nM.
On the same counts, the results for `C=CC(=O)N1CCC(Oc2cc3c(Nc4ccc(OCc5cccc(F)c5)c(Cl)c4)ncnc3cc2OC)CC1` [Example 54, 1-(4-(4-(3-chloro-4-(3-fluorobenzyloxy)phenylamino)-7-methoxyquinazolin-6-yloxy)piperidin-1-yl)pro-2-pen-1-one] are 10 nM and 2 nM.
Regarding `C=CC(=O)N1CCC(Oc2cc3c(Nc4cccc(C#N)c4)ncnc3cc2OC)CC1` [Example 56, 3-(6-(1-acryloylpiperidin-4-yloxy)-7-methoxyquinazolin-4-ylamino)benzonitrile], the IC50 in experiment [1] came to 3.7 nM; in experiment [2], 0.7 nM.
On the same counts, the results for `C=CC(=O)N1CCC(Oc2cc3c(Nc4cccc(Cl)c4OC)ncnc3cc2OC)CC1` [Example 59, 1-(4-(4-(3-chloro-2-methoxyphenylamino)-7-methoxyquinazolin-6-yloxy)piperidin-1-yl)pro-2-pen-1-one] are 3 nM and 9 nM.
On the same counts, the results for `C=CC(=O)N1CCC(Oc2cc3c(Nc4ccc(Cl)c(C)c4)ncnc3cc2OC)CC1` [Example 60, 1-(4-(4-(4-chloro-3-methylphenylamino)-7-methoxyquinazolin-6-yloxy)piperidin-1-yl)pro-2-pen-1-one] are 93 nM and 261 nM.
On the same counts, the results for `C=CC(=O)N1CCC(Oc2cc3c(Nc4ccc(Br)c(F)c4)ncnc3cc2OC)CC1` [Example 62, 1-(4-(4-(4-bromo-3-fluorophenylamino)-7-methoxyquinazolin-6-yloxy)piperidin-1-yl)pro-2-pen-1-one] are 7 nM and 6 nM.
As to `C=CC(=O)N1CCC(Oc2cc3c(Nc4cccc(Cl)c4C)ncnc3cc2OC)CC1` [Example 63, 1-(4-(4-(3-chloro-2-methylphenylamino)-7-methoxyquinazolin-6-yloxy)piperidin-1-yl)pro-2-pen-1-one], the IC50 in experiment [1] stood at 9 nM; in experiment [2] it was 1 nM.
On the same counts, the results for `C=CC(=O)N1CCC(Oc2cc3c(Nc4cccc(N(C)C)c4)ncnc3cc2OC)CC1` [Example 64, 1-(4-(4-(3-(dimethylamino)phenylamino)-7-methoxyquinazolin-6-yloxy)piperidin-1-yl)pro-2-pen-1-one] are 142 nM and 11 nM.
On the same counts, the results for `C=CC(=O)N1CCC(Oc2cc3c(Nc4cccc(C(F)(F)F)c4F)ncnc3cc2OC)CC1` [Example 65, 1-(4-(4-(2-fluoro-3-(trifluoromethyl)phenylamino)-7-methoxyquinazolin-6-yloxy)piperidin-1-yl)pro-2-pen-1-one] are 11 nM and 15 nM.
`C=CC(=O)N1CCC(Oc2cc3c(Nc4ccc(F)c(C#N)c4)ncnc3cc2OC)CC1` [Example 66, 5-(6-(1-acryloylpiperidin-4-yloxy)-7-methoxyquinazolin-4-ylamino)-2-fluorobenzonitrile]: the IC50 came to 8 nM in experiment [1] and 1 nM in experiment [2].
As for `C=CC(=O)N1CCC(Oc2cc3c(Nc4ccc(Cl)c(C#N)c4)ncnc3cc2OC)CC1` [Example 67, 5-(6-(1-acryloylpiperidin-4-yloxy)-7-methoxyquinazolin-4-ylamino)-2-chlorobenzonitrile], the IC50 stood at 35 nM in experiment [1] and 10 nM in experiment [2].
For the compound `C=CC(=O)N1CCC(Oc2cc3c(Nc4cccc(SC)c4)ncnc3cc2OC)CC1` [Example 68, 1-(4-(7-methoxy-4-(3-(methylthio)phenylamino)quinazolin-6-yloxy)piperidin-1-yl)pro-2-pen-1-one], the IC50 in experiment [1] came out at 305 nM; in experiment [2], 10 nM.
With `C=CC(=O)N1CCC(Oc2cc3c(Nc4ccccc4Cl)ncnc3cc2OC)CC1` [Example 69, 1-(4-(4-(2-chlorophenylamino)-7-methoxyquinazolin-6-yloxy)piperidin-1-yl)pro-2-pen-1-one], the IC50 came out at 65 nM in experiment [1] and 1.7 nM in experiment [2].
On the same counts, the results for `C=CC(=O)N1CCC(Oc2cc3c(Nc4ccc(Cl)cc4)ncnc3cc2OC)CC1` [Example 70, 1-(4-(4-(4-chlorophenylamino)-7-methoxyquinazolin-6-yloxy)piperidin-1-yl)pro-2-pen-1-one] are 4.6 nM and 2.1 nM.
On the same counts, the results for `C=CC(=O)N1CCC(Oc2cc3c(NCc4cccc(Cl)c4)ncnc3cc2OC)CC1` [Example 72, 1-(4-(4-(3-chlorobenzylamino)-7-methoxyquinazolin-6-yloxy)piperidin-1-yl)pro-2-pen-1-one] are 61 nM and 20 nM.
Take `C=CC(=O)N1CCC(Oc2cc3c(Nc4cccc([N+](=O)[O-])c4)ncnc3cc2OC)CC1` [Example 74, 1-(4-(7-methoxy-4-(3-nitrophenylamino)quinazolin-6-yloxy)piperidin-1-yl)pro-2-pen-1-one]: the IC50 in experiment [1] is 11 nM; in experiment [2], 1 nM.
On the same counts, the results for `C=CC(=O)Nc1cccc(Nc2ncnc3cc(OC)c(OC4CCN(C(=O)C=C)CC4)cc23)c1` [Example 75, N-(3-(6-(1-acryloylpiperidin-4-yloxy)-7-methoxyquinazolin-4-ylamino)phenyl)acrylamide] are 400 nM and 50 nM.
On the same counts, the results for `C=CC(=O)N1CCC(Oc2cc3c(Nc4cccc(S)c4)ncnc3cc2OC)CC1` [Example 76, 1-(4-(4-(3-mercaptophenylamino)-7-methoxyquinazolin-6-yloxy)piperidin-1-yl)pro-2-pen-1-one] are 300 nM and 100 nM.
On the same counts, the results for `C=CC(=O)N1CCC(Oc2cc3c(Nc4cccc(CCl)c4)ncnc3cc2OC)CC1` [Example 77, 1-(4-(4-(3-(chloromethyl)phenylamino)-7-methoxyquinazolin-6-yloxy)piperidin-1-yl)pro-2-pen-1-one] are 26 nM and 7 nM.
`C=CC(=O)N1CCC(Oc2cc3c(Nc4ccc(O)c(Cl)c4)ncnc3cc2OC)CC1` [Example 78, 1-(4-(4-(3-chloro-4-hydroxyphenylamino)-7-methoxyquinazolin-6-yloxy)piperidin-1-yl)pro-2-pen-1-one]: the figures for the IC50 in experiment [1] and in experiment [2] were 109 nM and 65 nM, respectively.
On the same counts, the results for `C=CC(=O)N1CCC(Oc2cc3c(Nc4ccc(O)c(F)c4)ncnc3cc2OC)CC1` [Example 79, 1-(4-(4-(3-fluoro-4-hydroxyphenylamino)-7-methoxyquinazolin-6-yloxy)piperidin-1-yl)prop-2-en-1-one] are 129 nM and 37 nM.
On the same counts, the results for `CC#CC(=O)N1CCC(Oc2cc3c(Nc4ccc(F)c(Cl)c4F)ncnc3cc2OC)CC1` [Example 80, 1-(4-(4-(3-chloro-2,4-difluorophenylamino)-7-methoxyquinazolin-6-yloxy)piperidin-1-yl)but-2-yn-1-one] are 190 nM and 268 nM.
Consider `COc1cc2ncnc(Nc3ccc(F)c(Cl)c3F)c2cc1OC1CCN(C(=O)C=C(C)C)CC1` [Example 81, 1-(4-(4-(3-chloro-2,4-difluorophenylamino)-7-methoxyquinazolin-6-yloxy)piperidin-1-yl)-3-methylbut-2-en-1-one], for which the IC50 turned out to be 38 nM in experiment [1] and 141 nM in experiment [2].
On the same counts, the results for `CNC(=O)/C=C/C(=O)N1CCC(Oc2cc3c(Nc4ccc(F)c(Cl)c4F)ncnc3cc2OC)CC1` [Example 82, (E)-4-(4-(4-(3-chloro-2,4-difluorophenylamino)-7-methoxyquinazolin-6-yloxy)piperidin-1-yl)-N-methyl-4-oxobut-2-enamide] are 48 nM and 134 nM.
For `COC(=O)/C=C\C(=O)N1CCC(Oc2cc3c(Nc4ccc(F)c(Cl)c4F)ncnc3cc2OC)CC1` [Example 83, (Z)-methyl 4-(4-(4-(3-chloro-2,4-difluorophenylamino)-7-methoxyquinazolin-6-yloxy)piperidin-1-yl)-4-oxobut-2-enoate], the values for the IC50 in experiment [1] and in experiment [2] were 9 nM and 23 nM, respectively.
On the same counts, the results for `COC(=O)/C=C\C(=O)N1CCC(Oc2cc3c(Nc4ccc(Cl)c(Cl)c4F)ncnc3cc2OC)CC1` [Example 84, (Z)-methyl 4-(4-(4-(3,4-dichloro-2-fluorophenylamino)-7-methoxyquinazolin-6-yloxy)piperidin-1-yl)-4-oxobut-2-enoate] are 8 nM and 21 nM.
On the same counts, the results for `COc1cc2ncnc(Nc3ccc(F)c(Cl)c3F)c2cc1OC1CCN(C(=O)/C=C\C(=O)O)CC1` [Example 85, (Z)-4-(4-(4-(3-chloro-2,4-difluorophenylamino)-7-methoxyquinazolin-6-yloxy)piperidin-1-yl)-4-oxobut-2-enoic acid] are 41 nM and 395 nM.
On the same counts, the results for `COc1cc2ncnc(Nc3ccc(Cl)c(Cl)c3F)c2cc1OC1CCN(C(=O)/C=C\C(=O)O)CC1` [Example 86, (Z)-4-(4-(4-(3,4-dichloro-2-fluorophenylamino)-7-methoxyquinazolin-6-yloxy)piperidin-1-yl)-4-oxobut-2-enoic acid] are 322 nM and > 1000 nM.
For `COc1cc2ncnc(Nc3ccc(Cl)c(Cl)c3F)c2cc1OC1CCN(C(=O)/C=C/C(=O)O)CC1` [Example 87, (E)-4-(4-(4-(3,4-dichloro-2-fluorophenylamino)-7-methoxyquinazolin-6-yloxy)piperidin-1-yl)-4-oxobut-2-enoic acid], the results for the IC50 in experiment [1] and in experiment [2] were 516 nM and 469 nM, respectively.
